A short description of this assay: Binding affinity was measured by its ability to displace [3H]CCK-8S from CCK-B receptor in guinea pig brain.

From BindingDB's records for doi:10.7270/Q2CV4KX9 (n/a, 1995) come the findings set out here.

Bounds are passed on as bounds.

As a reminder, the Ki is the dissociation constant of the complex between target and ligand, obtained from inhibition or displacement. The low end stands for a stronger hold on the target, the high end for a looser hold on the target. For the molecule `CC(C)CCN1C(=O)C(NC(=O)Nc2ccccc2)C(=O)N(c2ccccc2)c2cc(Cl)ccc21` (stereo not given), the Ki was determined as 0.955 µM.
As for `CC(C)CCN1C(=O)C(NC(=O)Nc2ccccc2)C(=O)N(c2ccccc2)c2ccc(Cl)cc21` (stereo not given), the Ki came to 0.955 µM.
The value for `CC(C)CCN1C(=O)C(NC(=O)Nc2ccccc2)C(=O)N(c2ccccc2)c2cc(F)ccc21` (stereo not given) was 0.224 µM; that for `CC(C)CCN1C(=O)C(NC(=O)Nc2ccccc2)C(=O)N(c2ccccc2)c2cc(Cl)c(Cl)cc21` (stereo not given) was 1.58 µM.
Next, `CC(C)CCN1C(=O)C(NC(=O)Nc2ccccc2)C(=O)N(c2ccccc2)c2ccc(F)cc21` (stereo not given): less than 1 µM.
